In PubChem BioAssay (NCI):
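Protocol summary: plate cells (96-well), add compound at 5 concentrations, incubate 48 h, interpolate endpoints linearly. Definition used: TGI = concentration required for complete inhibition of growth.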

System: RPMI-8226 leukemia
Assay: growth of human tumour cells (NCI), 48 h

SMILES	TGI
OC(CCN1CCCCC1)(c1ccccc1)c1ccccc1	> 100 µM
COC1CC(C)C(OC)C2=CC(=O)C=C(NC(=O)/C(C)=C/C=C\C(C)C(OC(N)=O)/C(C)=C\C(C)C1OC)C2=O (stereo unspecified)	4.39 µM
O=C(Nc1cccc2ccccc12)Nn1cnnc1	> 100 µM
CN(C)C=Nc1cccc2nsnc12	> 100 µM
COC(=O)C(C)NP(=O)(N1CC1)N1CC1 (stereo unspecified)	> 100 µM
N#C/C(=C\c1cn(Cc2ccccc2)c2ccccc12)c1nn(-c2ccccc2)c(N)c1C#N	> 100 µM
Ic1ncnc2c1ncn2C1CCCO1 (stereo unspecified)	> 100 µM
COc1cc(OCc2ccc3nc(-c4ccccc4)c(Cl)nc3c2)cc(OC)c1OC	> 100 µM
CC1(C)C2CCC3=C(CCC4(C)C5C[C@](C)(C(=O)O)CC[C@]5(C)CC[C@]34C)[C@@]2(C)CC[C@@H]1O (stereo partly specified)	51.1 µM
O=[n+]1c2ccccc2n([O-])c2ccccc21	> 100 µM
O=C1CC(CC(O)[C@@H]2CCCC[C@@H]2O)CC(=O)N1c1ccccc1 (stereo partly specified)	> 100 µM
OC1(CCc2ccccc2)COC(C(F)(F)F)(C(F)(F)F)C1 (stereo unspecified)	> 100 µM
Cc1c(C)c2c(c(N)c1C#N)C(=O)N(CCc1ccccc1)C2=O	> 100 µM

System: NCI-H460 lung
Assay: growth of human tumour cells (NCI), 48 h

SMILES	TGI
Cc1oc2c(c1C)S(=O)(=O)C(C#N)C(c1ccccc1)N2 (stereo unspecified)	> 100 µM
CC(=O)Oc1cc2c(n(C)c1=O)-c1ccccc1C2	> 100 µM
COc1ccc2cc(Oc3ccc(Cl)cc3)c(=O)oc2c1	> 100 µM
O=c1[nH]n(Cc2ccccc2Cl)c2ccc([N+](=O)[O-])cc12	> 100 µM
COC(=O)Nc1nc2ccc(S(=O)(=O)NC(CC(C)C)C(=O)OC)cc2[nH]1 (stereo unspecified)	> 100 µM
COC1CC(C)C(OC)C2=CC(=O)C=C(NC(=O)/C(C)=C/C=C\C(C)C(OC(N)=O)/C(C)=C\C(C)C1OC)C2=O (stereo unspecified)	8.37 µM
O=C(Nc1cccc2ccccc12)Nn1cnnc1	> 100 µM
COc1cc(S(=O)(=O)Nc2nc(-c3ccc(N4C(=O)CSC4c4cccs4)cc3)cs2)ccc1Cl (stereo unspecified)	> 100 µM
COc1cc(S(=O)(=O)Nc2nc(-c3ccc(N4C(=O)C(CC(=O)O)SC4c4ccccc4O)cc3)cs2)ccc1Cl (stereo unspecified)	> 100 µM
N#C/C(=C\c1cn(Cc2ccccc2)c2ccccc12)c1nn(-c2ccccc2)c(N)c1C#N	25.9 µM
Ic1ncnc2c1ncn2C1CCCO1 (stereo unspecified)	> 100 µM
COc1ccc(Nc2nnc(CCCCCCCCc3nnc(Nc4ccc(OC)cc4)o3)o2)cc1	> 100 µM
COc1cc(OCc2ccc3nc(-c4ccccc4)c(Cl)nc3c2)cc(OC)c1OC	> 100 µM
CC1(C)C2CCC3=C(CCC4(C)C5C[C@](C)(C(=O)O)CC[C@]5(C)CC[C@]34C)[C@@]2(C)CC[C@@H]1O (stereo partly specified)	30 µM
O=[n+]1c2ccccc2n([O-])c2ccccc21	> 100 µM
CC[C@](O)(CC(=O)O[C@H]1C(=O)O[C@@H]2C[C@H]3C(C)=CC(=O)[C@@H](O)[C@]3(C)[C@H]3[C@@]4(O)OC[C@]32[C@@H]1[C@@H](C)[C@H]4O)C(C)C	< 0.01 µM
CC(C)(C)O/C=C1/C(=O)OC2C[C@@H](O[Si](C)(C)C(C)(C)C)CC12 (stereo partly specified)	> 100 µM
O=C1CC(CC(O)[C@@H]2CCCC[C@@H]2O)CC(=O)N1c1ccccc1 (stereo partly specified)	> 100 µM
O=C1CC(=O)NC(=NN2C(=O)/C(=C/C(=O)c3ccco3)N=C2c2ccccc2)N1	> 100 µM
OC1(CCc2ccccc2)COC(C(F)(F)F)(C(F)(F)F)C1 (stereo unspecified)	> 100 µM
CCC(C)C(C(=O)N/N=C1/SCC(=O)N1c1ccccc1)C(=O)N/N=C1/SCC(=O)N1c1ccccc1 (stereo unspecified)	> 100 µM
Cc1c(C)c2c(c(N)c1C#N)C(=O)N(CCc1ccccc1)C2=O	> 100 µM

System: EKVX NSCLC
Assay: growth of human tumour cells (NCI), 48 h

SMILES	TGI
Cc1oc2c(c1C)S(=O)(=O)C(C#N)C(c1ccccc1)N2 (stereo unspecified)	> 100 µM
COc1ccc2cc(Oc3ccc(Cl)cc3)c(=O)oc2c1	> 100 µM
O=c1[nH]n(Cc2ccccc2Cl)c2ccc([N+](=O)[O-])cc12	> 100 µM
CC1=NN(C(=O)CC(=O)Nc2ccc(C)cc2)C(=O)C1N=Nc1ccc(C(=O)O)cc1 (stereo unspecified)	> 100 µM
CCOC(=O)CCC(NC(=O)c1ccc(CNc2nc3ccccc3nc2C(=O)OCC)cc1)C(=O)OCC (stereo unspecified)	> 100 µM
COC(=O)Nc1nc2ccc(S(=O)(=O)NC(CC(C)C)C(=O)OC)cc2[nH]1 (stereo unspecified)	89.8 µM
OC(CCN1CCCCC1)(c1ccccc1)c1ccccc1	> 100 µM
COC1CC(C)C(OC)C2=CC(=O)C=C(NC(=O)/C(C)=C/C=C\C(C)C(OC(N)=O)/C(C)=C\C(C)C1OC)C2=O (stereo unspecified)	23.1 µM
O=C(Nc1cccc2ccccc12)Nn1cnnc1	> 100 µM
CN(C)C=Nc1cccc2nsnc12	> 100 µM
COC(=O)C(C)NP(=O)(N1CC1)N1CC1 (stereo unspecified)	> 100 µM
N#C/C(=C\c1cn(Cc2ccccc2)c2ccccc12)c1nn(-c2ccccc2)c(N)c1C#N	27.5 µM
Ic1ncnc2c1ncn2C1CCCO1 (stereo unspecified)	> 100 µM
COc1ccc(Nc2nnc(CCCCCCCCc3nnc(Nc4ccc(OC)cc4)o3)o2)cc1	> 100 µM
COc1cc(OCc2ccc3nc(-c4ccccc4)c(Cl)nc3c2)cc(OC)c1OC	> 100 µM
CC1(C)C2CCC3=C(CCC4(C)C5C[C@](C)(C(=O)O)CC[C@]5(C)CC[C@]34C)[C@@]2(C)CC[C@@H]1O (stereo partly specified)	53 µM
O=[n+]1c2ccccc2n([O-])c2ccccc21	> 100 µM
CC[C@](O)(CC(=O)O[C@H]1C(=O)O[C@@H]2C[C@H]3C(C)=CC(=O)[C@@H](O)[C@]3(C)[C@H]3[C@@]4(O)OC[C@]32[C@@H]1[C@@H](C)[C@H]4O)C(C)C	< 0.01 µM
CC(C)(C)O/C=C1/C(=O)OC2C[C@@H](O[Si](C)(C)C(C)(C)C)CC12 (stereo partly specified)	> 100 µM
OC1(CCc2ccccc2)COC(C(F)(F)F)(C(F)(F)F)C1 (stereo unspecified)	> 100 µM
CCC(C)C(C(=O)N/N=C1/SCC(=O)N1c1ccccc1)C(=O)N/N=C1/SCC(=O)N1c1ccccc1 (stereo unspecified)	> 100 µM
